Experimental data published in patent US10981905B2, “Heteroaryl-substituted sulfonamide compounds and their use as therapeutic agents” (Xenon Pharmaceuticals Inc., priority 2018, dated 2021).
Where a name gives a salt, the structure may show the parent alone. Read-outs that look alike come from different tables or passages of the source.

Columns and labels:
Nav1.5 = Nav1.5 (Homo sapiens (Human), UniProt Q14524); experiment: Sodium Influx Assay (Flux), Nav1.5
Nav1.6 = Nav1.6 (Homo sapiens (Human), UniProt Q9UQD0); experiment: Sodium Influx Assay (Flux), Nav1.6; format: cell-based; settings: Trex HEK293 cells, ANG2 dye, inactivated state
Nav1.1 = Nav1.1 (Homo sapiens (Human), UniProt P35498); experiment: Sodium Influx Assay (Flux), Nav1.1; format: cell-based; settings: Trex HEK293 cells, ANG2 dye, inactivated state
[1] = read-out: Flux NaV1.5 IC50, sodium influx assay, Trex HEK293 cells, ANG2 dye, inactivated state

Chain of Nav1.5 (Q14524 other isoform, or with tags, fused parts or gaps): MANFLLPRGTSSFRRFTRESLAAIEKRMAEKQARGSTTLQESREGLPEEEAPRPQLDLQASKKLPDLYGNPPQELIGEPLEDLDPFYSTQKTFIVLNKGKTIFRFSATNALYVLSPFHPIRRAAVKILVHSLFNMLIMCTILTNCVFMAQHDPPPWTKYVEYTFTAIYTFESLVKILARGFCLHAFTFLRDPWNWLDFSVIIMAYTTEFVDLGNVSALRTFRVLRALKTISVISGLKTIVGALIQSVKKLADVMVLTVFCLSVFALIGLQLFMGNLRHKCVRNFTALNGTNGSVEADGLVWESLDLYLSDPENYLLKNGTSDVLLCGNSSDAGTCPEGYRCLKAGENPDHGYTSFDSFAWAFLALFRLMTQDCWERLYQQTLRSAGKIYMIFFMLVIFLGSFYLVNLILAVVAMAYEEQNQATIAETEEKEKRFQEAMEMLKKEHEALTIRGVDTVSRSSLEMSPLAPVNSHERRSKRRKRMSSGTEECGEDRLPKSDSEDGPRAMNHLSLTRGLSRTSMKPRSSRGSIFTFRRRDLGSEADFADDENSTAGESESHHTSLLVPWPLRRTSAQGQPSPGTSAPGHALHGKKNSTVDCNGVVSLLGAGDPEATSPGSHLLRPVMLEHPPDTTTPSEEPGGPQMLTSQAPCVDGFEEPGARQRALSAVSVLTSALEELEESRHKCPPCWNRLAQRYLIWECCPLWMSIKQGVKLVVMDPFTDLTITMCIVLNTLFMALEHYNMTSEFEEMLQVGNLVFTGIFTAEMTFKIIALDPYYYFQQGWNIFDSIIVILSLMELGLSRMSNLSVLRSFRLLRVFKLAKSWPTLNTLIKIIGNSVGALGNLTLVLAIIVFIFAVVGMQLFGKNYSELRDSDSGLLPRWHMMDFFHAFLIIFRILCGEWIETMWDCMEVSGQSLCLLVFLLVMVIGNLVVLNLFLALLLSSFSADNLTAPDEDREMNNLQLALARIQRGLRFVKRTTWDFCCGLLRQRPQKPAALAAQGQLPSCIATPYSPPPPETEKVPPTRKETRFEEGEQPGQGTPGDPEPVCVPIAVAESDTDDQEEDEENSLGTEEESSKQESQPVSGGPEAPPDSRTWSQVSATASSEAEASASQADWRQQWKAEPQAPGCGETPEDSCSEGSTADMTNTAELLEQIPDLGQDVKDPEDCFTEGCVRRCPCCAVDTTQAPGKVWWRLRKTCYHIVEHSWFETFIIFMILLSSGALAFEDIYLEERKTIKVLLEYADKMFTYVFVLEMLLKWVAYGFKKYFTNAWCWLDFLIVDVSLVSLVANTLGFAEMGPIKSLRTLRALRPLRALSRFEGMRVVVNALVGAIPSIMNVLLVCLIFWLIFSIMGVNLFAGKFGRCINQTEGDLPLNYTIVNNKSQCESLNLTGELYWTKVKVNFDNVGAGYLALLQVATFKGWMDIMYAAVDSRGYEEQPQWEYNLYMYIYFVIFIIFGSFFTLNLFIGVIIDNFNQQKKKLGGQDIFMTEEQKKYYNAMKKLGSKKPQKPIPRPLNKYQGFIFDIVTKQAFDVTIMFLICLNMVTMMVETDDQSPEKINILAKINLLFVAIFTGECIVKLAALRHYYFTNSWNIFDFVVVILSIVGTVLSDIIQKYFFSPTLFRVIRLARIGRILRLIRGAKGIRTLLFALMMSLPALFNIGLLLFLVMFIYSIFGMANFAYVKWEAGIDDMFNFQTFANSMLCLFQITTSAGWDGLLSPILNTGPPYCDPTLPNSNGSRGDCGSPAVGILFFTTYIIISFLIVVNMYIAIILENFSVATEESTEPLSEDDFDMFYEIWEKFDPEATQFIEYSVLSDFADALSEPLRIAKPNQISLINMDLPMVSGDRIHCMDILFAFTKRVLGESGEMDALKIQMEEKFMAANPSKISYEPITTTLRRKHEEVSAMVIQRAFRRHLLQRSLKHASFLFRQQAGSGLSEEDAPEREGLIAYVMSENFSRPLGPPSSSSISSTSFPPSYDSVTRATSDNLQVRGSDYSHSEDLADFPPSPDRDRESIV

SMILES	IC50 (Nav1.6)	IC50 (Nav1.1)	IC50 (Nav1.5; [1])	IC50 (Nav1.5)
C[C@H](Nc1ncc(S(=O)(=O)Nc2cscn2)cc1Cl)c1cc(Cl)ccc1F [Example 1, (S)-5-chloro-6-((1-(5-chloro-2-fluorophenyl)ethyl)amino)-N-(thiazol-4-yl)pyridine-3-sulfonamide]	2.82 µM	5 µM	5.57 µM	–
C[C@H](Nc1ncc(S(=O)(=O)Nc2cscn2)cc1Cl)c1ccccc1F [Example 2, (S)-5-chloro-6-((1-(2-fluorophenyl)ethyl)amino)-N-(thiazol-4-yl)pyridine-3-sulfonamide]	13.2 µM	25.8 µM	20.4 µM	–
Cc1nc(S(=O)(=O)Nc2cscn2)ccc1N[C@@H](C)c1ccccc1F [Example 3, (S)-5-((1-(2-fluorophenyl)ethyl)amino)-6-methyl-N-(thiazol-4-yl)pyridine-2-sulfonamide]	4.74 µM	30 µM	30 µM	–
Cc1cc(S(=O)(=O)Nc2cccc(F)n2)ncc1NCc1c(F)cccc1CN1CCC1 [Example 9, 5-((2-(azetidin-1-ylmethyl)-6-fluorobenzyl)amino)-N-(6-fluoropyridin-2-yl)-4-methylpyridine-2-sulfonamide]	0.917 µM	30 µM	21.1 µM	–
Cc1nc(NCc2c(F)cccc2CN(C)C(C)(C)C)ccc1S(=O)(=O)Nc1cscn1 [Example 10, 6-((2-((tert-butyl(methyl)amino)methyl)-6-fluorobenzyl)amino)-2-methyl-N-(thiazol-4-yl)pyridine-3-sulfonamide formic acid salt]	5.31 µM	23.6 µM	7.76 µM	–
CN(Cc1cccc(F)c1CNc1ncc(S(=O)(=O)Nc2cscn2)cc1Cl)C(C)(C)C [Example 11, 6-((2-((tert-butyl(methyl)amino)methyl)-6-fluorobenzyl)amino)-5-chloro-N-(thiazol-4-yl)pyridine-3-sulfonamide formic acid salt]	8.37 µM	11.7 µM	8.87 µM	–
Cc1cc(S(=O)(=O)Nc2ccsn2)ncc1NCc1c(F)cccc1CN1CCC1 [Example 12, 5-((2-(azetidin-1-ylmethyl)-6-fluorobenzyl)amino)-N-(isothiazol-3-yl)-4-methylpyridine-2-sulfonamide trifluoroacetic acid salt]	3.43 µM	30 µM	30 µM	–
Cc1cc(S(=O)(=O)Nc2cscn2)cnc1NCc1c(F)cccc1CN(C)C(C)(C)C [Example 13, 6-((2-((tert-butyl(methyl)amino)methyl)-6-fluorobenzyl)amino)-5-methyl-N-(thiazol-4-yl)pyridine-3-sulfonamide formic acid salt]	11.3 µM	14.9 µM	6.02 µM	–
Cc1nc(S(=O)(=O)Nc2cscn2)ccc1NCc1c(F)cccc1CN(C)CC1CC1 [Example 15, 5-((2-(((cyclopropylmethyl)(methyl)amino)methyl)-6-fluorobenzyl)amino)-6-methyl-N-(thiazol-4-yl)pyridine-2-sulfonamide formic acid salt]	0.286 µM	30 µM	21.6 µM	–
O=S(=O)(Nc1cscn1)c1cc(C(F)F)c(NCc2c(F)cccc2CN2CCCC2)cn1 [Example 17, 4-(difluoromethyl)-5-((2-fluoro-6-(pyrrolidin-1-ylmethyl)benzyl)amino)-N-(thiazol-4-yl)pyridine-2-sulfonamide formic acid salt]	1.46 µM	30 µM	30 µM	–
Cc1nc(S(=O)(=O)Nc2cccc(F)n2)ccc1NCc1c(F)cccc1CN(C)C(C)(C)C [Example 22, 5-((2-((tert-butyl(methyl)amino)methyl)-6-fluorobenzyl)amino)-N-(6-fluoropyridin-2-yl)-6-methylpyridine-2-sulfonamide trifluoroacetic acid salt]	0.221 µM	30 µM	30 µM	–
Cc1sc(S(=O)(=O)Nc2cccc(F)n2)cc1NCc1c(F)cccc1Br [Example 23, 4-((2-bromo-6-fluorobenzyl)amino)-N-(6-fluoropyridin-2-yl)-5-methylthiophene-2-sulfonamide]	9.54 µM	7.68 µM	30 µM	–
Cc1nc(S(=O)(=O)Nc2cscn2)ccc1NCc1c(F)cccc1CN1CCCC1 [Example 30, 5-((2-fluoro-6-(pyrrolidin-1-ylmethyl)benzyl)amino)-6-methyl-N-(thiazol-4-yl)pyridine-2-sulfonamide trifluoroacetic acid salt]	0.111 µM	30 µM	30 µM	–
O=S(=O)(Nc1cscn1)c1cc(C(F)(F)F)c(NCc2c(F)cccc2CN2CCC2)cn1 [Example 31, 5-((2-(azetidin-1-ylmethyl)-6-fluorobenzyl)amino)-N-(thiazol-4-yl)-4-(trifluoromethyl)pyridine-2-sulfonamide]	1.5 µM	30 µM	30 µM	–
Cc1nc(S(=O)(=O)Nc2cccc(F)n2)c(F)cc1NCc1ccccc1CN(C)C(C)(C)C [Example 32, 5-((2-((tert-butyl(methyl)amino)methyl)benzyl)amino)-3-fluoro-N-(6-fluoropyridin-2-yl)-6-methylpyridine-2-sulfonamide trifluoroacetic acid salt]	0.272 µM	16.7 µM	30 µM	–
Cc1nc(S(=O)(=O)Nc2cscn2)c(F)cc1NCc1ccccc1CN(C)C(C)(C)C [Example 34, 5-((2-((tert-butyl(methyl)amino)methyl)benzyl)amino)-3-fluoro-6-methyl-N-(thiazol-4-yl)pyridine-2-sulfonamide formic acid salt]	0.037 µM	≥ 30 µM	–	≥ 30 µM
Cc1nc(S(=O)(=O)Nc2cscn2)c(F)cc1NCc1c(F)cccc1CN(C)C(C)C [Example 35, 3-fluoro-5-((2-fluoro-6-((isopropyl(methyl)amino)methyl)benzyl)amino)-6-methyl-N-(thiazol-4-yl)pyridine-2-sulfonamide trifluoroacetic acid salt]	0.024 µM	10.5 µM	–	≥ 30 µM
Cc1nc(S(=O)(=O)Nc2cscn2)c(F)cc1NCc1c(F)ccc(F)c1Br [Example 36, 5-((2-bromo-3,6-difluorobenzyl)amino)-3-fluoro-6-methyl-N-(thiazol-4-yl)pyridine-2-sulfonamide trifluoroacetic acid salt]	0.863 µM	0.245 µM	30 µM	–

Now from value to compound, other results behind:

IC50 (Nav1.6)	IC50 (Nav1.1)	SMILES	IC50 (Nav1.5; [1])	IC50 (Nav1.5)
8.47 µM	30 µM	O=S(=O)(Nc1cscn1)c1ccc(NCc2c(F)cccc2CN2CCC2)nc1 [Example 5, 6-((2-(azetidin-1-ylmethyl)-6-fluorobenzyl)amino)-N-(thiazol-4-yl)pyridine-3-sulfonamide]	26.5 µM	–
5.82 µM	30 µM	Cc1cc(S(=O)(=O)Nc2cscn2)ncc1NCc1c(F)cccc1CN1CCC1 [Example 7, 5-((2-(azetidin-1-ylmethyl)-6-fluorobenzyl)amino)-4-methyl-N-(thiazol-4-yl)pyridine-2-sulfonamide formic acid salt]	30 µM	–
0.719 µM	30 µM	Cc1nc(S(=O)(=O)Nc2cscn2)ccc1NCc1c(F)cccc1CN1CCC1(C)C [Example 8, 5-((2-((2,2-dimethylazetidin-1-yl)methyl)-6-fluorobenzyl)amino)-6-methyl-N-(thiazol-4-yl)pyridine-2-sulfonamide trifluoroacetic acid salt]	30 µM	–
0.382 µM	13 µM	Cc1nc(S(=O)(=O)Nc2cscn2)ccc1NCc1c(F)cccc1CN1CC(C)(F)C1 [Example 14, 5-((2-fluoro-6-((3-fluoro-3-methylazetidin-1-yl)methyl)benzyl)amino)-6-methyl-N-(thiazol-4-yl)pyridine-2-sulfonamide]	24.5 µM	–
1.27 µM	30 µM	Cc1nc(S(=O)(=O)Nc2cscn2)ccc1NCc1cccc2ccncc12 [Example 16, 5-((isoquinolin-8-ylmethyl)amino)-6-methyl-N-(thiazol-4-yl)pyridine-2-sulfonamide formic acid salt]	30 µM	–
0.015 µM	15.5 µM	O=S(=O)(Nc1cscn1)c1ccc(NCc2c(F)cccc2CN2CCCC2)c(C(F)F)n1 [Example 18, 6-(difluoromethyl)-5-((2-fluoro-6-(pyrrolidin-1-ylmethyl)benzyl)amino)-N-(thiazol-4-yl)pyridine-2-sulfonamide formic acid salt]	21.4 µM	–
0.074 µM	30 µM	Cc1nc(S(=O)(=O)Nc2cscn2)ccc1NCc1c(F)cccc1CN1CC(C)C1 [Example 24, 5-((2-fluoro-6-((3-methylazetidin-1-yl)methyl)benzyl)amino)-6-methyl-N-(thiazol-4-yl)pyridine-2-sulfonamide]	30 µM	–
0.242 µM	30 µM	Cc1nc(S(=O)(=O)Nc2cscn2)ccc1NCc1ccccc1CN1CCC1 [Example 26, 5-((2-(azetidin-1-ylmethyl)benzyl)amino)-6-methyl-N-(thiazol-4-yl)pyridine-2-sulfonamide trifluoroacetic acid salt]	30 µM	–
0.296 µM	30 µM	Cc1nc(S(=O)(=O)Nc2cscn2)ccc1NCc1cccc(F)c1CN1CCC1 [Example 27, 5-((2-(azetidin-1-ylmethyl)-3-fluorobenzyl)amino)-6-methyl-N-(thiazol-4-yl)pyridine-2-sulfonamide trifluoroacetic acid salt]	30 µM	–
0.782 µM	≥ 30 µM	Cc1nc(S(=O)(=O)Nc2cscn2)ccc1NCc1ccccc1CN(C)C(C)(C)C [Example 28, 5-((2-((tert-butyl(methyl)amino)methyl)benzyl)amino)-6-methyl-N-(thiazol-4-yl)pyridine-2-sulfonamide trifluoroacetic acid salt]	–	≥ 30 µM
